Measurements: patent US9408866B2, “Method for detoxification or measurement of at least one compound or at least one fluid in a host body” (NIVA, priority 2012, dated 2016)
Marks after values point to notes of the source that are not given here.

Legend:
[1] = Contaminant masses in explanted silicone breast prostheses (acetone extraction, GC-MS); format: in vivo, human
Excerpt: Silicone prostheses were obtained following breast implant surgery during a period spanning from July 2010 to January 2012. Reasons for explanation ranged from severe capsular contracture to a wish for a change in prosthesis size.
Prostheses were collected during surgical explanation from patients and wrapped individually in clean aluminium foil and stored in labelled plastic bags.
As soon as possible after, samples were stored in a freezer. Samples were then transported on ice to the laboratory and stored at −20° C. until analysis. For this proof-of-concept study, 9 prostheses were extracted and analysed. […] Two prostheses were duplicates and their analysis aimed to investigate the reproducibility of the analytical steps as well as of the representativeness of the sampling (samples 2, 6, and 9 in Table 1). All prostheses were made of medical silicone gel enclosed in an outer silicone shell filled with gel with various degree of cohesiveness. Differences between prostheses from various producers include volume, type of silicone material, surface texture and thickness of the outer shell and cohesive degree of the filling gel. Prostheses were tinted and tinting from light yellow to orange appeared (from visual inspection only) dependent on exposure time. […]
Silicone prosthesis extraction were performed in batches of 10-12 samples and included a blank prosthesis (volume of 200-450 cm^3), a spiked prosthesis to assess extraction efficiency and a solvent blank to evaluate potential contamination during extraction and extract clean-up. Extraction of the whole prostheses was undertaken in pre-baked 2 L beakers kept in the dark to prevent photo degradation. Samples were brought to room temperature and the surface was rinsed with ultrapure water and dried with a clean tissue. Connective tissue capsule attached to the surface of prostheses were removed. Samples were extracted by soaking in 1 L of acetone for 24 hours. Acetone was chosen for its low capacity to swell the silicone matrix and because of the ease with which it can volatilise. Recovery standards for organochlorines, PCBs and PBDEs (including for BDE-209) were added to the acetone. It was expected that 24 hours is sufficient for chemicals (present in either phases) to partition between the solvent phase and the silicone prosthesis. The acetone was replaced by another 1 L of acetone and samples were extracted for a further 24 hours. The two volumes of acetone were combined and reduced under a gentle stream of nitrogen. Prostheses were weighed before and after solvent extraction to determine the total amount of silicone oils and other substances removed from the matrix during solvent extraction. A second set of internal standards was used to evaluate possible losses during the sample clean-up step. The solvent was changed to isohexane and sample clean-up consisted of repeated sulphuric acid treatment until no colouring of the extract could be observed. Extract were then passed through a silica-filled solid phase extraction column and eluted with dichloromethane or isohexane. Extracts were reduced to an adequate volume before analysis.
Analytes were separated on a 30 m-long DB-5MS column (0.25 mm i.d. and 0.25 μm film thickness, Agilent JW Scientific, Santa Clara, USA) following 1 μL pulsed splitless injection (pulse pressure 20 psi for 1.2 min, injector temperature of 300° C.). The helium gas flow was set to 1.2 mL min^−1 and the GC oven temperature programme consisted of a step at 60° C. (held for 2 min) before an increase to 250° C. (at the rate 7° C. min^−1) and a final increase to 310° C. (at the rate of 15° C. min^−1) with this temperature held constant for a further 5 min. Ion source, quadrupole and transfer line temperatures were set to 230, 150 and 280° C., respectively. Quantification was performed using the relative response of surrogate internal standards (CB-30, CB-53 and CB-204) and 7-point calibration curves. […]

[2] = mean, Norwegian women (n = 20) age 25-59, Thomsen et al. (2007); cited from earlier work
[3] = milk from Norwegian women (n = 70), Thomsen et al. (2011); cited from earlier work
[4] = POP concentration in lipids estimated from concentrations measured in prostheses; format: in vivo, human; conditions: estimated from silicone prosthesis concentrations, silicone density of 1.0 and Klip-sil values
Description: The representativeness and suitability of POP concentrations measured in explanted silicone prostheses can be evaluated through comparison with literature data on POP levels measured in breast milk or blood serum from Norwegian women. Using seal oil lipid-to-silicone partition coefficients, Klip-sil for PCBs and DDTs, estimates of POP concentrations in lipids of participants of the present invention were calculated. This approach assumes that the influence of the type of silicone and of lipids on lipid-silicone partition coefficients is minor.

[5] = seal lipids, taken from Jahnke et al. (2008); cited from earlier work
[6] = Sample 2, duplicate explanted prostheses analysed in the same batch

| Structure (SMILES) | Prosthesis contaminant mass, Mean [1, 6] | Measured Cserum [2] | Measured Cmilk (median with range in brackets) [3] | Estimated Clipid [4] | Klip-sil (lipid-silicone partition coefficient) [5] | Prosthesis contaminant mass, Mean ([1]; human, in vivo) |
| --- | --- | --- | --- | --- | --- | --- |
| Clc1cc(Cl)c(-c2cc(Cl)c(Cl)cc2Cl)cc1Cl [CB-153] | 252 ng sample^−1 | 43 ng g^−1 lipid | 38 (20-68) ng g^−1 lipid | 62 ng/g | 38.1 g/g |  |
| Brc1cc(Br)c(Oc2cc(Br)c(Br)cc2Br)cc1Br [BDE-153] | 3.7 ng sample^−1 |  |  |  |  |  |
| Brc1cc(Br)c(Oc2cc(Br)c(Br)cc2Br)c(Br)c1 [BDE-154] | 0.5 ng sample^−1 |  |  |  |  |  |
| Clc1ccc(C(c2ccc(Cl)cc2)C(Cl)(Cl)Cl)cc1 [p,p′-DDT] | 38 ng sample^−1 |  |  | 5.7 ng/g | 50.7 g/g |  |
| Clc1ccc(C(c2ccccc2Cl)C(Cl)(Cl)Cl)cc1 (centres unmarked) [o,p′-DDT] |  |  |  | 0.8 ng/g | 21.3 g/g |  |
| Clc1ccc(Cl)c(-c2cc(Cl)c(Cl)cc2Cl)c1 [CB-101] | 7.6 ng sample^−1 | 5.8 ng g^−1 lipid | 6.4 (1.8-36)^f ng g^−1 lipid | 0.5 ng/g | 26.3 g/g |  |
| ClC(Cl)=C(c1ccc(Cl)cc1)c1ccc(Cl)cc1 [p,p′-DDE] | 543 ng sample^−1 |  |  |  |  |  |
| Brc1ccc(Oc2ccc(Br)cc2Br)cc1 [BDE-28] | 0.5 ng sample^−1 |  |  |  |  |  |
| Clc1ccc(-c2cc(Cl)c(Cl)cc2Cl)cc1Cl [CB-118] | 52 ng sample^−1 | 8.0 ng g^−1 lipid | 9.3 (4.0-15)^f ng g^−1 lipid | 7.5 ng/g | 35.2 g/g |  |
| Clc1ccc(-c2ccc(Cl)c(Cl)c2Cl)cc1Cl [CB-105] | 11 ng sample^−1 |  | 1.8 (0.89-3.2)^f ng g^−1 lipid | 1.5 ng/g | 35.4 g/g |  |
| Clc1ccc(-c2cc(Cl)c(Cl)c(Cl)c2Cl)cc1Cl [CB-156] | 15 ng sample^−1 |  | 3.2 (1.5-5.9)^f ng g^−1 lipid | 4.5 ng/g | 50.8 g/g |  |
| Clc1ccc(Cl)c(-c2cc(Cl)ccc2Cl)c1 [CB-52] |  |  |  |  | 19.2 g/g |  |
| Brc1ccc(Oc2ccc(Br)c(Br)c2)cc1Br [BDE-77] | 0.8 ng sample^−1 |  |  |  |  |  |
| Clc1cc(Cl)c(Cl)c(Cl)c1Cl [PeCB, pentachlorobenzene] | 5.6 ng sample^−1 |  |  |  |  |  |
| Brc1ccc(Oc2ccc(Br)cc2Br)c(Br)c1 [BDE-47] | 1.6 ng sample^−1 |  |  |  |  |  |
| Clc1cc(Cl)c(-c2ccc(Cl)c(Cl)c2Cl)cc1Cl [CB-138] | 123 ng sample^−1 | 20 ng g^−1 lipid | 16 (8-30)^f ng g^−1 lipid | 27 ng/g | 34.0 g/g |  |
| Clc1c(Cl)c(Cl)c(Cl)c(Cl)c1Cl [HCB, hexachlorobenzene] | 181 ng sample^−1 |  |  | 10.9 ng/g |  |  |
| Brc1c(Br)c(Br)c(Oc2c(Br)c(Br)c(Br)c(Br)c2Br)c(Br)c1Br [BDE-209] | 6.5 ng sample^−1 |  |  |  |  |  |
| ClC(Cl)=C(Cl)c1c(Cl)c(Cl)c(Cl)c(Cl)c1Cl [OCS, octachlorostyrene] |  |  |  |  |  | 3.5 ng sample^−1 |
| Clc1cc(Cl)c(-c2cc(Cl)c(Cl)c(Cl)c2Cl)cc1Cl [CB-180] | 9.3 ng sample^−1 | 34 ng g^−1 lipid | 17 (8.5-32)^f ng g^−1 lipid | 4.2 ng/g | 49.4 g/g |  |
